The text below walks through data of the C3SDB collision cross section collection.

The conditions of data set [1]: instrument: DT, single field, calibrated with Agilent tune mix (Agilent).
The conditions of data set [2]: instrument: DT, stepped-field.
For data set [3] the following is noted: instrument: DT, stepped-field. This is another data set of the same source.

As to `C[C@H]1O[C@@H](n2cnc3c(N)ncnc32)[C@H](O)[C@@H]1O` [5'-Deoxyadenosine], the “collision cross section (N2)” value in data set [1] ([M+Na]+) worked out at 166.8 Å²; in data set [1] ([M-H]-) it was 151.91 Å²; in data set [2] ([M+H]+), 162.1 Å²; in data set [2] ([M+Na]+) it was 171.99 Å².
On to `Cn1c(=O)c2c(ncn2C)n(C)c1=O` [Caffeine], for which the “collision cross section (N2)” value is on record as 140.9 Å² in data set [1] ([M+H]+), 145.4 Å² in data set [2] ([M+H]+) and 142.93 Å² in data set [2] ([M+Na]+).
In the case of `OC[C@H]1O[C@@H](O[C@H]2[C@H](O)[C@@H](O)[C@H](O)O[C@@H]2CO)[C@H](O)[C@@H](O)[C@@H]1O` [Cellobiose], the “collision cross section (N2)” value in data set [1] ([M+Na]+) was 178.1 Å²; in data set [2] ([M+Na]+) it was 178.66 Å².
`CCCCCCCCCCCCCCCCCC(=O)N[C@@H](CO)[C@H](O)CCCCCCCCCCCCCCC` [Cer(36:00)]: the “collision cross section (N2)” value in data set [3] ([M+H]+) is listed as 261.92 Å².
The same measure, in the same setting: to `CCCCCCCCCCCCCCCCCCCC(=O)N[C@@H](CO)[C@H](O)CCCCCCCCCCCCCCC` [Cer(38:00)] belongs 267.37 Å².
Regarding `CCCCCCCCCCCCC=CC[C@@H](O)[C@H](CO)NC(=O)CC=CCCCCCCCCCCCCCCCCCC` [Cer(40:02)], the “collision cross section (N2)” value in data set [3] ([M+H-H2O]+) was determined as 267.47 Å²; in data set [3] ([M+H]+) it was 272.27 Å².
On to `CCCCCCCCCCCCC=CC[C@@H](O)[C@H](CO)NC(=O)CC=CCCCCCCCCCCCCCCCCCCCCCC` [Cer(44:02)], for which the “collision cross section (N2)” value in data set [3] ([M+H-H2O]+) is listed as 279.7 Å².
For `OCC1(O)OC[C@@H](O)[C@@H](O)[C@@H]1O` (stereo partly drawn) [D-Fructose], the “collision cross section (N2)” value is 141.4 Å² in data set [1] ([M+Na]+) and 141.93 Å² in data set [2] ([M+Na]+).
For the compound `Nc1ccn([C@H]2C[C@H](O)[C@@H](CO)O2)c(=O)n1` [Deoxycytidine], the “collision cross section (N2)” value in data set [1] ([M+Na]+) was determined as 154.5 Å²; in data set [1] ([M-H]-) it was 146.84 Å²; in data set [2] ([M+Na]+), 158.41 Å².
With `O=C(COP(=O)(O)O)[C@@H](O)[C@H](O)[C@H](O)CO` [Fructose-1-phosphate], the “collision cross section (N2)” value amounted to 155.4 Å² in data set [1] ([M+Na]+), 141.86 Å² in data set [1] ([M-H]-) and 159.68 Å² in data set [2] ([M+Na]+).
Consider `CCCCCCCCCCCCCCCCCC(=O)N[C@@H](CO[C@@H]1O[C@H](CO)[C@@H](O)C(O)C1O)[C@H](O)CCCCCCCCCCCCCCC` (some centres undefined) [GlcCer(36:00)], for which the “collision cross section (N2)” value in data set [3] ([M+H]+) came out at 284.59 Å².
Regarding `CCCCCCCCCCCCC=CC[C@@H](O)[C@H](CO[C@@H]1O[C@H](CO)[C@@H](O)C(O)C1O)NC(=O)CC=CCCCCCCCCCCCCCC` (some centres undefined) [GlcCer(36:02)], the “collision cross section (N2)” value in data set [3] ([M+H]+) turned out to be 281.37 Å²; in data set [3] ([M+Na]+), 281.52 Å².
Turning to `CCCCCCCCCCCCC=CC[C@@H](O)[C@H](CO[C@@H]1O[C@H](CO)[C@@H](O)C(O)C1O)NC(=O)CCCCCCCCCCCCCCCCCCCC` (some centres undefined) [GlcCer(39:01)], the “collision cross section (N2)” value in data set [3] ([M+Na]+) is 291.95 Å².
Still for that read-out and setting: as for `CCCCCCCCCCCCC=CC[C@@H](O)[C@H](CO[C@@H]1O[C@H](CO)[C@@H](O)C(O)C1O)NC(=O)CC=CCC=CCCCCCCCCCCCCCCC` (some centres undefined) [GlcCer(40:03)], the figure is 290.28 Å².
Consider `CCCCCCCCCCCCCCCCCCCCCCCC(=O)N[C@@H](CO[C@@H]1O[C@H](CO)[C@@H](O)C(O)C1O)[C@H](O)CCCCCCCCCCCCCCC` (some centres undefined) [GlcCer(42:00)], for which the “collision cross section (N2)” value in data set [3] ([M+H]+) is 302.3 Å²; in data set [3] ([M+Na]+), 303.14 Å².
As to `CCCCCCCCCCCCC=CC[C@@H](O)[C@H](CO[C@@H]1O[C@H](CO)[C@@H](O)C(O)C1O)NC(=O)CC=CCCCCCCCCCCCCCCCCCCCC` (some centres undefined) [GlcCer(42:02)], the “collision cross section (N2)” value stood at 298.77 Å² in data set [3] ([M+Cl]-); 296.4 Å² in data set [3] ([M+H-H2O]+); 301.95 Å² in data set [3] ([M+HCOO]-); 299.26 Å² in data set [3] ([M+H]+); 299.53 Å² in data set [3] ([M+Na]+).
In the case of `CCCCCCCCCCCCCCCCCCCCCCCCCCCCC(=O)N[C@@H](CO[C@@H]1O[C@H](CO)[C@@H](O)C(O)C1O)[C@H](O)CCCCCCCCCCCCCCC` (some centres undefined) [GlcCer(47:00)], in data set [3] ([M+Na-2H2O]+), the “collision cross section (N2)” value turned out to be 313.61 Å².
Turning to `Cn1cncc1C[C@H](NC(=O)CCN)C(=O)O` [L-Anserine], the “collision cross section (N2)” value in data set [1] ([M+H]+) is on record as 154.1 Å²; in data set [1] ([M-H]-), 152.32 Å²; in data set [2] ([M+H]+) it was 155.97 Å²; in data set [2] ([M+Na]+), 159.77 Å².
Turning to `CC(=O)NCCCCN` [N-Acetylputrescine], the “collision cross section (N2)” value in data set [1] ([M+H]+) was found to be 128.3 Å²; in data set [1] ([M-H]-), 127.22 Å²; in data set [2] ([M+H]+), 131.7 Å²; in data set [2] ([M+Na]+) it was 137.57 Å².
In the case of `C[C@@H]1O[C@@H](O[C@H]2[C@H](Oc3cc(O)c4c(c3)O[C@H](c3ccc(O)cc3)CC4=O)O[C@H](CO)[C@@H](O)[C@@H]2O)[C@H](O)[C@H](O)[C@H]1O` [Naringin], the “collision cross section (N2)” value in data set [1] ([M+H]+) stood at 237.5 Å²; in data set [2] ([M+H]+), 240.62 Å²; in data set [2] ([M+Na]+), 234.02 Å².
`CCCCC/C=C\C/C=C\CCCCCCCCCC(=O)O[C@H](COC(=O)CCCCCCC/C=C\CCCCCC)COP(=O)(O)O` [PA(36:03)]: the “collision cross section (N2)” value in data set [3] ([M+2Na-H]+) worked out at 271.74 Å²; in data set [3] ([M+Na]+), 270.97 Å².
As to `CCCCC/C=C\C/C=C\CCCCCCCCCCCC(=O)O[C@H](COC(=O)CCCCCCCCCCCCCCC)COP(=O)(O)O` [PA(38:02)], the “collision cross section (N2)” value in data set [3] ([M+Na]+) is 279.74 Å².
Take `CCCCC/C=C\C/C=C\CCCCCCCCCC(=O)O[C@H](COC(=O)CCCCCCC/C=C\CCCCCCCC)COP(=O)(O)O` [PA(38:03)]: the figures for the “collision cross section (N2)” value in data set [3] ([M+2Na-H]+) and in data set [3] ([M+Na]+) were 279.8 Å² and 277.43 Å², respectively.
The matching figures for `CCCCC/C=C\C/C=C\C/C=C\C/C=C\CCCCCC(=O)O[C@H](COC(=O)CCCCCCC/C=C\CCCCCCCC)COP(=O)(O)O` [PA(40:05)]: 283.07 Å² and 281.79 Å².
In the case of `CCCCCCCC/C=C\CCCCCCCCCC(=O)O[C@H](COC(=O)CCCCCCCCCCC)COP(=O)([O-])OCC[N+](C)(C)C` [PC(32:01)], the “collision cross section (N2)” value was determined as 284.71 Å² in data set [3] ([M+HCOO]-), 276.5 Å² in data set [3] ([M+H]+) and 279.16 Å² in data set [3] ([M+Na]+).
Take `CCCCC/C=C\C/C=C\CCCCCCCC(=O)O[C@H](COC(=O)CCCCCCCCCCCCC)COP(=O)([O-])OCC[N+](C)(C)C` [PC(32:02)]: in data set [3] ([M+Na]+), the “collision cross section (N2)” value is reported as 276.86 Å².
`C[C@@H]1O[C@@H](OC[C@H]2O[C@@H](Oc3c(-c4ccc(O)c(O)c4)oc4cc(O)cc(O)c4c3=O)[C@H](O)[C@@H](O)[C@@H]2O)[C@H](O)[C@H](O)[C@H]1O` [Rutin]: the “collision cross section (N2)” value was found to be 232.6 Å² in data set [1] ([M+H]+), 231.04 Å² in data set [1] ([M-H]-), 236.2 Å² in data set [2] ([M+H]+) and 251.61 Å² in data set [2] ([M+Na]+).
For the compound `NCCc1c[nH]c2ccc(O)cc12` [Serotonin], the “collision cross section (N2)” value in data set [1] ([M-H]-) was determined as 135.85 Å²; in data set [2] ([M+H]+), 151.9 Å²; in data set [2] ([M+Na]+), 150.8 Å².
